Results taken from patent US7217730B2, “Method for the use of pyranoindole derivatives to treat infection with Hepatitis C virus” (Wyeth, priority 2002, dated 2007).

Target: T1, NS5B from the BK strain (genotype 1b) (Hepatitis C virus genotype 1b, UniProt P26663)
T1 construct: NS5B from the BK strain (genotype 1b) is expressed in E. coli as a protein in which the 21 C-terminal amino acids are replaced; made in house; host or cells: E. coli
Experiment: Hepatitis C polymerase inhibition, NS5B BK strain, 33P-GTP filter assay
Format: biochemical
Conditions: Table 1A; for inhibition at 20 µM: 20 μM compound, read-out: HCV pol % inh at 20 μM; for IC50: NS5B BK strain, read-out: HCV pol BK IC50
Source text: The ability of the compounds of the present invention to inhibit Hepatitis C Polymerase was established by the following experimental procedure: • NS5B from the BK strain (genotype 1b) is expressed in E. coli as a protein in which the 21 C-terminal amino acids are replaced with a short linker and a hexahistidine tag ([…]). The purified protein is mixed with radioactive nucleotides and allowed to replicate a heteropolymeric RNA substrate, primed by an endogenous short hairpin, resulting in an approximately 760 nt product. The radioactive product is captured on a filter and quantitated after removal of the unincorporated nucleotides.
Reagents: • 10 mM uridine 5′-triphosphate (UTP) (Promega # p116B) • 10 mM adenine 5′-triphosphate (ATP) (Promega # p113B) • 10 mM cytidine 5′-triphosphate (CTP) (Promega # p114B) • 10 mM guanine 5′-triphosphate (GTP) (Promega # p115B) • Bovine Serum Albumin (BSA) 10 mg/ml NEB (100× at 10 mg/ml) #007-BSA • RNasein (Promega #N251X) 40 U/μl • A-[33P]-GTP (NEN-easytides NEG/606H 3000 Ci/mmol, 370 MBq/ml, 10 mCi/ml) • Falcon polypropylene 96 well plates (Becton Dickinson # 351190) • Millipore Multiscreen assasy system-96 well-filtration plate #MADE NOB 50 • Optiphase Supermix (Wallac) formulated by Fisher • Millipore Multiscreen liner for use in microbeta 1450-106 casette [(Wallac) Perkin Elmer #1450-433] • 1 M(N-[2-hydroxyethyl]piperazine-N′-[2-ethanesulfonic acid]) (HEPES), pH 7.3 • Amersham Pharmacia Biotec (US16924-500 ml) • 1 M MgCl2 (SIGMA #M1028) • Dithiothreitol (DTT) (solid) (SIGMA #D9779) • RNase free water (GIBCO-BRL #10977-023) • Dimethyl sulfoxide (Aldrich #27685-5) • Basilen Blue (Sigma, B5520) • 0.5M ethylenediaminetetraacetic acid (EDTA), pH 8 (GIBCO-BRL #15575-020) • Dibasic sodium phosphate (7-hydrate) (Na2HPO4.7H2O; Baker#3824-07) • Phosphoric acid (Baker, #0262.02)
Further reagent preparation: • 0.5 M Na Phosphate buffer. Per liter, weigh 134 gr Na2HPO4.7H2O, add water to 900 ml. Adjust pH to 7.0 with phosphoric acid. Top off with water to 1 L. • Dilute nucleotides 1:1000 to 10 μM (GTP and CTP) or 1:100 to 100 μM (ATP and UTP) into RNase free water.
Procedure: • (1) Compounds 10 μl at 10 μg/ml in 15% dimethylsulfoxide (DMSO)
When starting from 100 μg/ml compound stock in […]: • Dispense 5 μl 30% DMSO per well • Dispense 5 μl compound (100 μg/ml) per well.
When starting from 50 μg/ml compound stock in 15% DMSO: • Add 10 μl compound per well. • (2) Enzyme Mix:
Add 20 μl enzyme mix into each well of the assay plate. Incubate compound and enzyme at room temperature for 15 minutes • (3) Template mix—prepare ahead
Spin down a tube of RNA (5 μg/tube stored in 75% ethanol and 0.3 M sodium acetate) in a microcentrifuge for 20 minutes at 4° C. One tube is enough for 1–1.5 plates. Remove as much ethanol from the tube as possible by inverting the tube. Be gentle, pellet RNA may not adhere to the tube. Vacuum dry the RNA. Resuspend the RNA by adding 1 ml of DEPC water, close the cap of the tube tightly. To dissolve RNA, incubate RNA solution on ice for ˜60 minutes and gently vortex. Spin briefly to ensure all RNA solution is down to the bottom of the tube before opening cap. Gently transfer RNA solution into a 5 ml or larger tube. Add another 3 ml of DEPC water (total 4 ml of volume).
Add the following volumes of reagents
Add 20 μl template mix per reaction (i.e. 20 ng of pOF per reaction or ˜3 nM) • (4) Incubate reaction at room temperature (22–25° C.) for 2 hours. • (5) Stop reaction by adding 50 μl of 170 mM EDTA. • Final concentration of EDTA is 85 mM. • (6) Prewet filters of Millipore multiscreen assay plate by adding 200 μl of 0.5 M sodium phosphate buffer, pH 7.0 into each well. Let stand at room temperature for 2–3 minutes. • (7) Place the multiscreen filter plate onto a Millipore Manifold and turn on vacuum to allow buffer to flow through. Turn off vacuum. Transfer 80 μl of the reaction product into each well of the filter plate. Let stand for 2–3 minutes. […]

T1 sequence (P26663 2420-2989): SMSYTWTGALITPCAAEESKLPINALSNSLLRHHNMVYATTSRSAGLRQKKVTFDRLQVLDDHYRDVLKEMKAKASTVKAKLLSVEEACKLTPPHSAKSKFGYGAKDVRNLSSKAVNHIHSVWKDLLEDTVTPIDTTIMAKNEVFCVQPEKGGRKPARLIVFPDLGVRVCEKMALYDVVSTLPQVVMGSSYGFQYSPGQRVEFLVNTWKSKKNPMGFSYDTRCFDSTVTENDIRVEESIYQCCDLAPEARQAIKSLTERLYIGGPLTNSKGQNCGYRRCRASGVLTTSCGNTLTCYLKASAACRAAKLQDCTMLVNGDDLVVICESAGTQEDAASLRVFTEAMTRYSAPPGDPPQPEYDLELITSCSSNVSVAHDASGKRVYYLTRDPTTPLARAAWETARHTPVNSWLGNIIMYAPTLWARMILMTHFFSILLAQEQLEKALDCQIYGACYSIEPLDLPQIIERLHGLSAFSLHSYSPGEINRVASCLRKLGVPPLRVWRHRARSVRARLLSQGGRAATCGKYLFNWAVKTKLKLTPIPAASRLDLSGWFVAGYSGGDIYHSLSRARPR

Compound | inhibition at 20 µM | IC50
O=C(O)CC1(c2ccccc2F)OCCc2c1[nH]c1c(Cl)ccc(Cl)c21 (centres unmarked) [Example 56, [5,8-dichloro-1-(2-fluorophenyl)-1,3,4,9-tetrahydropyrano[3,4-b]indol-1-yl]acetic acid] | 3% | > 20 µM
O=C(O)CC1(c2ccc(C(=O)O)cc2)OCCc2c1[nH]c1c(Cl)ccc(Cl)c21 (centres unmarked) [Example 57, 4-[1-(carboxymethyl)-5,8-dichloro-1,3,4,9-tetrahydropyrano[3,4-b]indol-1-yl]benzoic acid] | 56% | 3 µM
CCCC1(CC(=O)O)OCCc2c1[nH]c1cccc(C#N)c21 (centres unmarked) [Example 58, (5-cyano-1-propyl-1,3,4,9-tetrahydro-pyrano[3,4-b]indol-1-yl)acetic acid] | 78% | 6.9 µM
CC(C)C1(CC(=O)O)OCCc2c1[nH]c1cccc(C#N)c21 (centres unmarked) [Example 59, (5-cyano-1-isopropyl-1,3,4,9-tetrahydropyrano[3,4-b]indol-1-yl)acetic acid] | 23% | > 20 µM
C/C=C/CCC1(CC(=O)O)OCCc2c1[nH]c1cccc(C#N)c21 (centres unmarked) [Example 60, {5-cyano-1-[(3E)-pent-3-enyl]-1,3,4,9-tetrahydropyrano[3,4-b]indol-1-yl}acetic acid] | 15% | > 20 µM
N#Cc1cccc2[nH]c3c(c12)CCOC3(CC(=O)O)c1ccoc1 (centres unmarked) [Example 61, [5-cyano-1-(3-furyl)-1,3,4,9-tetrahydropyrano[3,4-b]indol-1-yl]acetic acid] | 18% | > 20 µM
N#Cc1cccc2[nH]c3c(c12)CCOC3(CC(=O)O)c1ccccc1 (centres unmarked) [Example 62, (5-cyano-1-phenyl-1,3,4,9-tetrahydropyrano[3,4-b]indol-1-yl)acetic acid] | 32% | > 20 µM
COc1cc(C2(CC(=O)O)OCCc3c2[nH]c2cccc(C#N)c32)cc(OC)c1OC (centres unmarked) [Example 63, [5-cyano-1-(3,4,5-trimethoxyphenyl)-1,3,4,9-tetrahydropyrano[3,4-b]indol-1-yl]acetic acid] | 30% | > 20 µM
N#Cc1cccc2[nH]c3c(c12)CCOC3(CC(=O)O)c1ccc([N+](=O)[O-])cc1 (centres unmarked) [Example 64, [5-cyano-1-(4-nitrophenyl)-1,3,4,9-tetrahydropyrano[3,4-b]indol-1-yl]acetic acid] | 18% | > 20 µM
N#Cc1cccc2[nH]c3c(c12)CCOC3(CC(=O)O)c1cccc([N+](=O)[O-])c1 (centres unmarked) [Example 65, [5-cyano-1-(3-nitrophenyl)-1,3,4,9-tetrahydropyrano[3,4-b]indol-1-yl]acetic acid] | 27% | > 20 µM
N#Cc1cccc2[nH]c3c(c12)CCOC3(CC(=O)O)c1ccccc1F (centres unmarked) [Example 66, [5-cyano-1-(2-fluorophenyl)-1,3,4,9-tetrahydropyrano[3,4-b]indol-1-yl]acetic acid] | 28% | > 20 µM
CCCCC1(CC(=O)O)OCCc2c1[nH]c1c(Cl)ccc(Cl)c21 (centres unmarked) [Example 67, (1-butyl-5,8-dichloro-1,3,4,9-tetrahydropyrano[3,4-b]indol-1-yl)acetic acid] | 78% | 0.76 µM
CCCCC1(CC(=O)O)OCCc2c1[nH]c1cccc(Br)c21 (centres unmarked) [Example 68, (5-bromo-1-butyl-1,3,4,9-tetrahydropyrano[3,4-b]indol-1-yl)acetic acid] | 61% | 10.3 µM
CCCCC1(CC(=O)O)OCCc2c1[nH]c1cccc(Cl)c21 (centres unmarked) [Example 69, (1-butyl-5-chloro-1,3,4,9-tetrahydropyrano[3,4-b]indol-1-yl)acetic acid] |  | 5.5 µM
COC(=O)CC1(CC(=O)O)OCCc2c1[nH]c1cccc(Cl)c21 (centres unmarked) [Example 70, [5-chloro-1-(2-methoxy-2-oxoethyl)-1,3,4,9-tetrahydropyrano[3,4-b]indol-1-yl]acetic acid] | 22% | > 5 µM
O=C(O)CC1(CC(=O)O)OCCc2c1[nH]c1cccc(Cl)c21 [Example 71, [1-(carboxymethyl)-5-chloro-1,3,4,9-tetrahydropyrano[3,4-b]indol-1-yl]acetic acid] | 45% | > 5 µM
CC1(CC(=O)O)OCCc2c1[nH]c1c(Cl)cccc21 (centres unmarked) [Example 72, (8-chloro-1-methyl-1,3,4,9-tetrahydropyrano[3,4-b]indol-1-yl)acetic acid] | 45% | > 20 µM
CCC1(CC(=O)O)OCCc2c1[nH]c1c(Cl)cccc21 (centres unmarked) [Example 73, (8-chloro-1-ethyl-1,3,4,9-tetrahydropyrano[3,4-b]indol-1-yl)acetic acid] | 22% | > 20 µM
CCCC1(CC(=O)O)OCCc2c1[nH]c1c(Cl)cccc21 (centres unmarked) [Example 74, (8-chloro-1-propyl-1,3,4,9-tetrahydropyrano[3,4-b]indol-1-yl)acetic acid] | 69% | 17.9 µM
CC(C)C1(CC(=O)O)OCCc2c1[nH]c1c(Cl)cccc21 (centres unmarked) [Example 75, (8-chloro-1-isopropyl-1,3,4,9-tetrahydropyrano[3,4-b]indol-1-yl)acetic acid] | 17% | > 20 µM
CCCCC1(CC(=O)O)OCCc2c1[nH]c1c(Cl)cccc21 (centres unmarked) [Example 76, (1-butyl-8-chloro-1,3,4,9-tetrahydropyrano[3,4-b]indol-1-yl)acetic acid] | 29% | > 20 µM
C/C=C/CCC1(CC(=O)O)OCCc2c1[nH]c1c(Cl)cccc21 (centres unmarked) [Example 77, {8-chloro-1-[(3E)-pent-3-enyl]-1,3,4,9-tetrahydropyrano[3,4-b]indol-1-yl}acetic acid] | 16% | > 20 µM
O=C(O)CC1(c2ccccc2)OCCc2c1[nH]c1c(Cl)cccc21 (centres unmarked) [Example 78, (8-chloro-1-phenyl-1,3,4,9-tetrahydropyrano[3,4-b]indol-1-yl)acetic acid] | 26% | > 20 µM
O=C(O)CC1(c2ccoc2)OCCc2c1[nH]c1c(Cl)cccc21 (centres unmarked) [Example 79, [8-chloro-1-(3-furyl)-1,3,4,9-tetrahydropyrano[3,4-b]indol-1-yl]acetic acid] | 40% | > 20 µM
CC1(CC(=O)O)OCCc2c1[nH]c1c(Br)cccc21 (centres unmarked) [Example 80, (8-bromo-1-methyl-1,3,4,9-tetrahydropyrano[3,4-b]indol-1-yl)acetic acid] | 35% | > 20 µM
CCC1(CC(=O)O)OCCc2c1[nH]c1c(Br)cccc21 (centres unmarked) [Example 81, (8-bromo-1-ethyl-1,3,4,9-tetrahydropyrano[3,4-b]indol-1-yl)acetic acid] | 27% | > 20 µM
CCCC1(CC(=O)O)OCCc2c1[nH]c1c(Br)cccc21 (centres unmarked) [Example 82, (8-bromo-1-propyl-1,3,4,9-tetrahydropyrano[3,4-b]indol-1-yl)acetic acid] | 73% | 9.2 µM
